This is an account of results in ChEMBL document CHEMBL1129835, “Selective cytotoxicity of certain 9-substituted ellipticines for leukemia cells in a variety of leukemia cell cultures” (1997).

What all share (type): functional
Holding throughout (conditions): Homo sapiens

One experiment deals with MDA-N. Kind of experiment: The compound was evaluated for cytotoxicity against MDA-N breast cancer cell line.
For another experiment, the system named is PC-3. Briefly: The compound was evaluated for cytotoxicity against PC-3 prostate cancer cell line.
For another experiment, the system named is IGROV-1. Kind of experiment: The compound was evaluated for cytotoxicity against IGROV1 ovarian cancer cell line.
The subject of the next experiment is MOLT-4. Kind of experiment: The compound was evaluated for cytotoxicity against MOLT-4 leukemia cell line.
For another experiment, the system named is CAKI-1. Briefly: The compound was evaluated for cytotoxicity against CAKI-1 renal cancer cell line.
The test system of the next experiment is LOX IMVI. Briefly: The compound was evaluated for cytotoxicity against LOX-IMVI melanoma cell line.
The next experiment relates to NCI-H322M. Briefly: The compound was evaluated for cytotoxicity against NCI-H322M non-small cell lung cancer cell line.
A further experiment relates to U-251. Briefly: The compound was evaluated for cytotoxicity against U251 CNS cancer cell line.
The test system of a further experiment is HCT-116. Kind of experiment: The compound was evaluated for cytotoxicity against HCT116 colon cancer cell line.

What is called GI50 is the concentration giving 50% growth inhibition. Higher therefore signals less potent growth inhibition. For `Cc1c2ccncc2c(C)c2c1[nH]c1ccc(CNCCN(C)C)cc12`, the GI50 with MDA-N came out at 280 nM; in the experiment with PC-3 it was 380 nM; in the experiment on IGROV-1 it was 150 nM; in the experiment on MOLT-4, 100 nM; in the experiment on CAKI-1 it was 260 nM; with LOX IMVI, 160 nM. In addition, the GI50 with NCI-H322M was found to be 250 nM; in the experiment on U-251, 280 nM; with HCT-116, 170 nM.
